Reference: publication PMC5469273, “Discovery of Novel Small-Molecule Inhibitors of LIM Domain Kinase for Inhibiting HIV-1” (Journal of Virology, 2017)
pIC50: −log10 of the molar value.

What was measured:
HIV-1(NL4-3) = assay: microbe, parasite or virus in culture; assay type: cell-based; conditions: Human immunodeficiency virus 1, NL43; pretreated 1 h, HIV-1(NL4-3) 3 h, washed, 48 h; luciferase; read-out: IC50, inhibition of HIV
HIV-1(VSV G) = assay type: cell-based; conditions: 100 μM
CD4 = assay: Surface staining of CD4 on CEM-SS T cells; assay type: cell-based, human; conditions: 100 μM
HIV-1(Vpr-β-lactamase) = assay: BlaM-Vpr-based viral entry assay; assay type: cell-based; conditions: 100 μM; CEM-SS T cells
HIV-1(Nef-luciferase) = assay: Nef-luciferase-based viral entry assay; assay type: cell-based; conditions: 100 μM; data not shown
[1] = test system: HIV DNA-transfected HEK293 cells; assay type: cell-based, HIV-1; conditions: different concentrations, 48 h
RVFV-Luc (MP12) = assay: microbe, parasite or virus in culture; assay type: cell-based; conditions: Rift Valley fever virus, Vero, 24 h, read-out: IC50, inhibition of RVFV
Vero cells = conditions: up to 100 μM R10015
in vitro = conditions: human
BTK = BTK (Homo sapiens, UniProt Q06187); assay: Kinase profiling (Reaction Biology): BTK
AKT2 = AKT2 (Homo sapiens, UniProt P31751); assay: Kinase profiling (Reaction Biology): AKT2
AKT2, sequence (P31751 whole entry): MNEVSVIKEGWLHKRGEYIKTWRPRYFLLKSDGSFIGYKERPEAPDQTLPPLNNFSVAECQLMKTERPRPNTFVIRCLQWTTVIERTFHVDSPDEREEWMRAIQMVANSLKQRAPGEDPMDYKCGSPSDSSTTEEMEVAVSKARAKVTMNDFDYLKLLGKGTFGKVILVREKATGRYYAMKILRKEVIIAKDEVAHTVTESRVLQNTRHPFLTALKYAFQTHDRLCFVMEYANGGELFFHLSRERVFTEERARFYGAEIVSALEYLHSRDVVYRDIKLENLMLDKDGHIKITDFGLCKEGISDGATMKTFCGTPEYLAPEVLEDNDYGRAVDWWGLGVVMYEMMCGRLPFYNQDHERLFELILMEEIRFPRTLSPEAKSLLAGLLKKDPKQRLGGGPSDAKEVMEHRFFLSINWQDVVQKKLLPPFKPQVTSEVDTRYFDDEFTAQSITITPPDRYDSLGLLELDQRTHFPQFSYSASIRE

PKA = PKA (Homo sapiens, UniProt P17612); assay: Kinase profiling (Reaction Biology): PKA
BRAF = BRAF (Homo sapiens, UniProt P15056); assay: Kinase profiling (Reaction Biology): BRAF
CK1d = CK1d (Homo sapiens, UniProt P48730); assay: Kinase profiling (Reaction Biology): CK1d
EGFR = EGFR (Homo sapiens, UniProt P00533); assay: Kinase profiling (Reaction Biology): EGFR
EGFR, sequence (P00533 25-1210): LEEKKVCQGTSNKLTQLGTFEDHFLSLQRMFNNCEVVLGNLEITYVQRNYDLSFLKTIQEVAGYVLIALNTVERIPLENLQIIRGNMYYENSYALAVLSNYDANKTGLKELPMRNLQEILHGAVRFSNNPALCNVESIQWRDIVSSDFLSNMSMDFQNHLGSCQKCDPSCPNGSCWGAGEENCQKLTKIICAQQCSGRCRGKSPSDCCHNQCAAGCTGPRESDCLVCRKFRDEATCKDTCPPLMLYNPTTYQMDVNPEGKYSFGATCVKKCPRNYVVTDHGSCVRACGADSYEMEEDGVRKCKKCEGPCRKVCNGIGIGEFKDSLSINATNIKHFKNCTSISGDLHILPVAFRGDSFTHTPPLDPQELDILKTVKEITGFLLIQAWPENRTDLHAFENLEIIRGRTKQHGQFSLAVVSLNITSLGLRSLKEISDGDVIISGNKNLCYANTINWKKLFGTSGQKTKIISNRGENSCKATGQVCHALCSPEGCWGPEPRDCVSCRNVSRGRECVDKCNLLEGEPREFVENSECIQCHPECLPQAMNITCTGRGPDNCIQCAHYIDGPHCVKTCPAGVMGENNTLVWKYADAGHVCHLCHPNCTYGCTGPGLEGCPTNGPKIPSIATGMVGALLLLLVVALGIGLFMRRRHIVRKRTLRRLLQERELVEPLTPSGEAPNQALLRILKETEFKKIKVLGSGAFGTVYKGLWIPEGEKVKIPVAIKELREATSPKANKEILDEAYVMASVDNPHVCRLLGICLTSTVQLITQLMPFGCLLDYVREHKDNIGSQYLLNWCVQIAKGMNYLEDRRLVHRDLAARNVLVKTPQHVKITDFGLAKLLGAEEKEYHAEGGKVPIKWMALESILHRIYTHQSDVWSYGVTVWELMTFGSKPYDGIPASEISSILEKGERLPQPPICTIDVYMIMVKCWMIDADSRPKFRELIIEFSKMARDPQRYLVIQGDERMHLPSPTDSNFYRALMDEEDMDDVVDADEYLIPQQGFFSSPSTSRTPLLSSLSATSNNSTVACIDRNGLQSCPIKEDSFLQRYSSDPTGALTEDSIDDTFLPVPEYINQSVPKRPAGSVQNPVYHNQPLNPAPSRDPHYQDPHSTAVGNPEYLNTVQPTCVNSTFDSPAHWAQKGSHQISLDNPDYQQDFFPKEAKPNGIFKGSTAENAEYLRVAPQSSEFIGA

FLT3 = FLT3 (Homo sapiens, UniProt P36888); assay: Kinase profiling (Reaction Biology): FLT3
FLT3, sequence (P36888 27-993): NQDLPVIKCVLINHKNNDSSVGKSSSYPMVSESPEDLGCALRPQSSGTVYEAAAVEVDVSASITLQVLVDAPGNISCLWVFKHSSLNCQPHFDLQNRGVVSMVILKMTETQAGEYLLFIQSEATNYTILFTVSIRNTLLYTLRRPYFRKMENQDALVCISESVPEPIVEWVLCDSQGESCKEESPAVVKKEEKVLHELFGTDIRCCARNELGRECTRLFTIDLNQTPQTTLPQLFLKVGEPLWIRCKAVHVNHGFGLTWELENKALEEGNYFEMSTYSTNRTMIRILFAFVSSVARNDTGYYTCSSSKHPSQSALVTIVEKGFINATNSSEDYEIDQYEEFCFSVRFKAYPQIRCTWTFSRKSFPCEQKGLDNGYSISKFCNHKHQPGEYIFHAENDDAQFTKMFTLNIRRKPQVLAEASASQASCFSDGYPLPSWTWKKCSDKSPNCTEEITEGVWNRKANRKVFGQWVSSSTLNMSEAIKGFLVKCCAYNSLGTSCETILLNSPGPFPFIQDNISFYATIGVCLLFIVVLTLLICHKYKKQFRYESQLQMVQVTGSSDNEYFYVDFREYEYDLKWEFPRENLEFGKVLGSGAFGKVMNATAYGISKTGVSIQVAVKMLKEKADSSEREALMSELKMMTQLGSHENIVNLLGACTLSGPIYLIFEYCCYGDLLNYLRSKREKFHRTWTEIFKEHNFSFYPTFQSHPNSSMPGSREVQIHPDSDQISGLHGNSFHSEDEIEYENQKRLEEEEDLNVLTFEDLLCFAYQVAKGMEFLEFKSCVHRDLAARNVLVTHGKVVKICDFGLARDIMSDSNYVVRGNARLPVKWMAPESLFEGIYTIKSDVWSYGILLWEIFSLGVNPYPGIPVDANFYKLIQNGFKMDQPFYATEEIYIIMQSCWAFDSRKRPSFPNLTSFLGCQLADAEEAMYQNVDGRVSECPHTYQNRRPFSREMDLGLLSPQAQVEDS

JAK3 = JAK3 (Homo sapiens, UniProt P52333); assay: Kinase profiling (Reaction Biology): JAK3
MEK1 = MEK1 (Homo sapiens, UniProt Q02750); assay: Kinase profiling (Reaction Biology): MEK1
NEK1 = NEK1 (Homo sapiens, UniProt Q96PY6); assay: Kinase profiling (Reaction Biology): NEK1
PIM2 = PIM2 (Homo sapiens, UniProt Q9P1W9); assay: Kinase profiling (Reaction Biology): PIM2
PLK2 = PLK2 (Homo sapiens, UniProt Q9NYY3); assay: Kinase profiling (Reaction Biology): PLK2
RSK1 = RSK1 (Homo sapiens, UniProt Q15418); assay: Kinase profiling (Reaction Biology): RSK1
RSK1, sequence (Q15418 whole entry): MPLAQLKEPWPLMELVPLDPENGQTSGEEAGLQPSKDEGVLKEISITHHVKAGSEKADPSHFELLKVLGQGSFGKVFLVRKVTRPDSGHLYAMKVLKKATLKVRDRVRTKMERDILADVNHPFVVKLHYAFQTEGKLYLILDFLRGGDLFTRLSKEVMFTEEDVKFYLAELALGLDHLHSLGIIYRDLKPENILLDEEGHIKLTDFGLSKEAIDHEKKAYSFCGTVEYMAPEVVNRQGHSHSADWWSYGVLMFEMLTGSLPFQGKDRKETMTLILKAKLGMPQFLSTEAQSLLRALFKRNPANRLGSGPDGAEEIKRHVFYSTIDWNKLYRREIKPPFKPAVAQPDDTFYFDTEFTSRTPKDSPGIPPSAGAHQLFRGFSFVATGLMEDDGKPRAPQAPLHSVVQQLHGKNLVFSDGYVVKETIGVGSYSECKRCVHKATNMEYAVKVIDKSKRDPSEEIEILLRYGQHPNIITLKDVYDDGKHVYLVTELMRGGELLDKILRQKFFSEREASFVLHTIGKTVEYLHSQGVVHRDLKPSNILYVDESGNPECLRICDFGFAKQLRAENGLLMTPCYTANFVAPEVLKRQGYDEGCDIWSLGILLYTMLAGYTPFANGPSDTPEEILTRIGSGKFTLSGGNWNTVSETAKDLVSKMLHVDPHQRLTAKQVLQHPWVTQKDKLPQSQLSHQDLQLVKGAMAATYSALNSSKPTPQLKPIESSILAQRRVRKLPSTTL

SGK1 = SGK1 (Homo sapiens, UniProt O00141); assay: Kinase profiling (Reaction Biology): SGK1
TAK1 = TAK1 (Homo sapiens, UniProt O43318); assay: Kinase profiling (Reaction Biology): TAK1
TAK1, sequence (O43318 1-303 limits assumed): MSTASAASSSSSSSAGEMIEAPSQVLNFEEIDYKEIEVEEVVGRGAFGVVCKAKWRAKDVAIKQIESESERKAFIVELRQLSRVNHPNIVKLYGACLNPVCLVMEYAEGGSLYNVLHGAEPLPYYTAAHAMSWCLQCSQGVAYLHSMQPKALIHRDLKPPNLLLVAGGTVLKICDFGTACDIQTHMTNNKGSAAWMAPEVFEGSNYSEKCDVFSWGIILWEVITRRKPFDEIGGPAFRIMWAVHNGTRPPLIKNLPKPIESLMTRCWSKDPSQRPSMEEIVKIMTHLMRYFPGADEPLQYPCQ

TLK1 = TLK1 (Homo sapiens, UniProt Q9UKI8); assay: Kinase profiling (Reaction Biology): TLK1
WEE1 = WEE1 (Homo sapiens, UniProt P30291); assay: Kinase profiling (Reaction Biology): WEE1
c-MET = c-MET (Homo sapiens, UniProt P08581); assay: Kinase profiling (Reaction Biology): c-MET
c-Src = c-Src (Homo sapiens, UniProt P12931); assay: Kinase profiling (Reaction Biology): c-Src
EPHA3 = EPHA3 (Homo sapiens, UniProt P29320); assay: Kinase profiling (Reaction Biology): EPHA3
GSK3b = GSK3b (Homo sapiens, UniProt P49841); assay: Kinase profiling (Reaction Biology): GSK3b
IGF1R = IGF1R (Homo sapiens, UniProt P08069); assay: Kinase profiling (Reaction Biology): IGF1R
ROCK2 = ROCK2 (Homo sapiens, UniProt O75116); assay: Kinase profiling (Reaction Biology): ROCK2
ROCK2, sequence (O75116 whole entry): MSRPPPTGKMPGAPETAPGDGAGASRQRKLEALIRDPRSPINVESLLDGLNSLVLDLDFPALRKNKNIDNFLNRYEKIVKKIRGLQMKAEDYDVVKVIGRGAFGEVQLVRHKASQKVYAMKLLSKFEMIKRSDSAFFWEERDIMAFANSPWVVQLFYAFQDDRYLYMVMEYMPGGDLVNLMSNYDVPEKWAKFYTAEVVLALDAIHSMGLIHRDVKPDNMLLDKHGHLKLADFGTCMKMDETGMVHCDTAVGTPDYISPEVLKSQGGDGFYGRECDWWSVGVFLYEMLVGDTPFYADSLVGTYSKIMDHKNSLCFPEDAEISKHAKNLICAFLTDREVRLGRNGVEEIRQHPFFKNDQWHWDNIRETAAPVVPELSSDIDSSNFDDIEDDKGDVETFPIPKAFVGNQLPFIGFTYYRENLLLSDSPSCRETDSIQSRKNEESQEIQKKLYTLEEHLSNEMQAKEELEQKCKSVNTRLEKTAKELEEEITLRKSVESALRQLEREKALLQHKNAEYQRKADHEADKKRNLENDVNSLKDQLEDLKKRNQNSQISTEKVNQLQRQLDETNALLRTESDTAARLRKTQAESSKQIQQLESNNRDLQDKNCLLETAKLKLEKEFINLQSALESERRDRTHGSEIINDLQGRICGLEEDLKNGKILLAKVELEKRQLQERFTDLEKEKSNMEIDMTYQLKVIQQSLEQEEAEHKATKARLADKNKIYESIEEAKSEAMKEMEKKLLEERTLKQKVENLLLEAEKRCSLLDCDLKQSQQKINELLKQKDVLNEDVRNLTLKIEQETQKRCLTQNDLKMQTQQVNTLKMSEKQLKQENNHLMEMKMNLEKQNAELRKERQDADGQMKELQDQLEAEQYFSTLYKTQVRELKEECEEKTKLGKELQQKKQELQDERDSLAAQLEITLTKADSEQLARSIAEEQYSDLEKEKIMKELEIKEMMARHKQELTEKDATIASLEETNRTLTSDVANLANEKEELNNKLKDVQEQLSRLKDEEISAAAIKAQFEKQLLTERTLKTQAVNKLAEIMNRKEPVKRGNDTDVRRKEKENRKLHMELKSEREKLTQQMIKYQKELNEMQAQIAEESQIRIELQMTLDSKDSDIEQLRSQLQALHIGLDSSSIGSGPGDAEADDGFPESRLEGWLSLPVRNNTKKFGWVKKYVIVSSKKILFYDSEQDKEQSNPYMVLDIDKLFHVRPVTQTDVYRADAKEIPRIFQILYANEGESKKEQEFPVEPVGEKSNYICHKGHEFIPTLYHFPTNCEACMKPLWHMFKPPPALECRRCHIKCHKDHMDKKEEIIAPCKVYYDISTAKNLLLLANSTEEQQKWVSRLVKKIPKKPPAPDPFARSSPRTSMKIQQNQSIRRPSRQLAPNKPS

TAOK1 = TAOK1 (Homo sapiens, UniProt Q7L7X3); assay: Kinase profiling (Reaction Biology): TAOK1
CAMK2b = CAMK2b (Homo sapiens, UniProt Q13554); assay: Kinase profiling (Reaction Biology): CAMK2b
PDGFRb = PDGFRb (Homo sapiens, UniProt P09619); assay: Kinase profiling (Reaction Biology): PDGFRb
phosphorylation of PAK2 = assay: Western blotting for PAK2 phosphorylation in CEM-SS T cells; conditions: 100 μM, time course
p-cofilin = assay: Intracellular p-cofilin staining and flow cytometry in CEM-SS T cells; conditions: 100 μM, 1 h, 0 h: 20.6%

Question: With COC(=O)c1ccc2[nH]c(C3CCN(c4ncnc5[nH]cc(Cl)c45)CC3)nc2c1 [Compound R10015, Methyl 2-(1-(5-chloro-7H-pyrrolo[2,3-d]pyrimidin-4-yl)piperidin-4-yl)-1H-benzo[d]imidazole-5-carboxylate] as the molecule, how does the pIC50 (HIV-1(NL4-3)) read?
Answer: 4.83

Question: And the “inhibition of early steps of VSV G-pseudotyped HIV” value (HIV-1(VSV G))?
Answer: minimally inhibited

Question: And the “surface expression of CD4” value (CD4; 1 h)?
Answer: did not alter

Question: And the “surface density of CD4” value (CD4; prolonged treatment 4 h)?
Answer: slightly decreased

Question: And the “viral entry, HIV-1(Vpr-β-lactamase)” value (HIV-1(Vpr-β-lactamase))?
Answer: did not significantly inhibit

Question: What about the “viral entry, HIV-1(Nef-luciferase)” value (HIV-1(Nef-luciferase)) of the same molecule?
Answer: did not significantly inhibit

Question: And the “virion release from HIV DNA-transfected HEK293 cells” value [1]?
Answer: inhibited

Question: And the pIC50 (RVFV-Luc (MP12))?
Answer: ~4.90

Question: And the drug toxicity (Vero cells)?
Answer: No drug toxicity

Question: And the viability at 100 µM (in vitro)?
Answer: 89.2%

Question: What about the activity at 1 µM (BTK) of the same molecule?
Answer: 90.2%

Question: And the activity at 1 µM (AKT2)?
Answer: 73.1%

Question: And the activity at 1 µM (PKA)?
Answer: 24%

Question: And the inhibition at 1 µM (PKA; read-out: inhibition of protein kinase A (PKA))?
Answer: ~76%

Question: What about the activity at 1 µM (BRAF) of the same molecule?
Answer: 91.9%

Question: And the activity at 1 µM (CK1d)?
Answer: 85%

Question: What about the activity at 1 µM (EGFR) of the same molecule?
Answer: 93.2%

Question: What about the activity at 1 µM (FLT3) of the same molecule?
Answer: 32.2%

Question: And the inhibition at 1 µM (FLT3; read-out: inhibition of FLT3)?
Answer: ~68%

Question: And the activity at 1 µM (JAK3)?
Answer: 61.1%

Question: What about the activity at 1 µM (MEK1) of the same molecule?
Answer: 75.6%

Question: And the activity at 1 µM (NEK1)?
Answer: 67.2%

Question: And the activity at 1 µM (PIM2)?
Answer: 97.6%

Question: What about the activity at 1 µM (PLK2) of the same molecule?
Answer: 103%

Question: What about the activity at 1 µM (RSK1) of the same molecule?
Answer: 47.2%

Question: What about the activity at 1 µM (SGK1) of the same molecule?
Answer: 61%

Question: What about the activity at 1 µM (TAK1) of the same molecule?
Answer: 82.4%

Question: What about the activity at 1 µM (TLK1) of the same molecule?
Answer: 98.5%

Question: And the activity at 1 µM (WEE1)?
Answer: 97.2%

Question: What about the activity at 1 µM (c-MET) of the same molecule?
Answer: 82.1%

Question: What about the activity at 1 µM (c-Src) of the same molecule?
Answer: 92.4%

Question: What about the activity at 1 µM (EPHA3) of the same molecule?
Answer: 91.1%

Question: And the activity at 1 µM (GSK3b)?
Answer: 67.8%

Question: And the activity at 1 µM (IGF1R)?
Answer: 90%

Question: What about the activity at 1 µM (ROCK2) of the same molecule?
Answer: 29.5%

Question: And the inhibition at 1 µM (ROCK2; read-out: inhibition of ROCK2)?
Answer: ~70%

Question: And the activity at 1 µM (TAOK1)?
Answer: 54%

Question: What about the activity at 1 µM (CAMK2b) of the same molecule?
Answer: 90.8%

Question: What about the activity at 1 µM (PDGFRb) of the same molecule?
Answer: 78.6%

Question: And the “phosphorylation of PAK2” value (phosphorylation of PAK2)?
Answer: not affected

Question: What about the “P-cofilin, lower gate (cells staining low)” value (p-cofilin) of the same molecule?
Answer: 80%
